# Experimental data: US20230263822A1, “MODULATION OF FACTOR 11 EXPRESSION” (Ionis Pharmaceuticals, Inc., priority 2008, published 2023)
# Strand notation (5' to 3'): a small letter for the sugar, then the base; units joined by * are phosphorothioate-linked, units joined directly phosphodiester-linked; [ ] holds rarer units or linkages, { } end groups; capitals alone tell only the bases. e = 2'-O-(2-methoxyethyl) (MOE); [5mC] = 5-methylcytosine; d = 2'-deoxy (DNA)
# Experiments:
# Assay type in all cases: cell-based
# [1] = test system: human Factor 11 mRNA; assay: Antisense inhibition of human Factor 11 in HepG2 cells by microwalk gapmers, lipofectin, 75 nM (Example 3)
# Outline: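 HepG2 cells (10,000/well) were transfected via lipofectin with 75 nM 20-mer MOE gapmers (phosphorothioate, 5-methyl-C) for about 24 h. Factor 11 mRNA was measured by qRT-PCR, normalized to RIBOGREEN total RNA, and given as percent inhibition versus untreated cells.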
# [2] = test system: human Factor 11 mRNA; assay: Dose-dependent inhibition of human Factor 11 in HepG2 cells, lipofectin 9.375-75 nM (Example 4); settings: for percent inhibition of Factor 11 at 9.375 nM / percent inhibition of Factor 11 at 18.75 nM / percent inhibition of Factor 11 at 37.5 nM / percent inhibition of Factor 11 at 75 nM: relative to untreated control cells
# Experimental: (§1) Cells were plated at a density of 10,000 cells per well and transfected using lipofectin reagent with 9.375 nM, 18.75 nM, 37.5 nM and 75 nM concentrations of antisense oligonucleotide, as specified in Table 9. After a treatment period of approximately 16 hours, RNA was isolated from the cells and Factor 11 mRNA levels were measured by quantitative real-time PCR. Human Factor 11 primer probe set RTS 2966 was used to measure mRNA levels. Factor 11 mRNA levels were adjusted according to total RNA content, as measured by RIBOGREEN. Results are presented as percent inhibition of Factor 11, relative to untreated control cells.
# [3] = test system: human Factor 11 mRNA; assay: Dose-dependent inhibition of human Factor 11 in HepG2 cells, electroporation 0.7-20 uM (Example 4); settings: for percent inhibition of Factor 11 at 0.7 μM / percent inhibition of Factor 11 at 2.2 μM / percent inhibition of Factor 11 at 6.7 μM / percent inhibition of Factor 11 at 20 μM: relative to untreated control cells
# Experimental: as §1, with “The gapmers were also transfected via electroporation and their dose dependent inhibition of human Factor 11 mRNA was measured. Cells” for “Cells”, “20,000” for “10,000”, “via electroporation” for “using lipofectin reagent”, “0.7 μM, 2.2 μM, 6.7 μM,” for “9.375 nM, 18.75 nM, 37.5 nM”, “20 μM” for “75 nM”, “10.” for “9.”
# [4] = HepG2, lipofectin, ~24 h, gapmers targeted to nucleobases 656 to 704 of SEQ ID NO: 1
# [5] = HepG2 cells, lipofectin, gapmers targeted to nucleobases 1275 to 1318 of SEQ ID NO: 1
Substance,"% inhibition [1, 4]",IC50 [2],percent inhibition of Factor 11 at 9.375 nM [2],percent inhibition of Factor 11 at 18.75 nM [2],percent inhibition of Factor 11 at 37.5 nM [2],percent inhibition of Factor 11 at 75 nM [2],IC50 [3],percent inhibition of Factor 11 at 0.7 μM [3],percent inhibition of Factor 11 at 2.2 μM [3],percent inhibition of Factor 11 at 6.7 μM [3],percent inhibition of Factor 11 at 20 μM [3],"% inhibition [1, 5]","% inhibition ([1]; HepG2 cells, lipofectin, gapmers targeted to nucleobases 1062 to 1091 of SEQ ID NO: 1)"
416972 (antisense eT*eA*dT*dG*d[5mC]*d[5mC]*d[5mC]*dT*dT*d[5mC]*dA*dT*dG*dT*d[5mC]*eT*eA*eG*eG*eT) [compound 416972],90%,26 nM,32%,40%,60%,69%,4300 nM,25%,30%,48%,88%,–,–
416973 (antisense eT*eT*dA*dT*dG*d[5mC]*d[5mC]*d[5mC]*dT*dT*d[5mC]*dA*dT*dG*dT*e[5mC]*eT*eA*eG*eG) [compound 416973],92%,3 nM,60%,75%,85%,87%,2300 nM,20%,48%,86%,93%,–,–
416969 (antisense eG*e[5mC]*d[5mC]*d[5mC]*dT*dT*d[5mC]*dA*dT*dG*dT*d[5mC]*dT*dA*dG*eG*eT*e[5mC]*e[5mC]*eA) [compound 416969],80%,28 nM,17%,39%,61%,76%,2500 nM,25%,34%,86%,92%,–,–
416931 (antisense eG*eG*e[5mC]*dA*dT*dT*dG*dG*dT*dG*d[5mC]*dA*d[5mC]*dA*dG*dT*dT*eT*e[5mC]*eT) [compound 416931],–,22 nM,44%,39%,57%,71%,5100 nM,7%,24%,60%,82%,96%,–
416924 (antisense eG*eT*eG*d[5mC]*dA*d[5mC]*dA*dG*dT*dT*dT*d[5mC]*dT*dG*dG*d[5mC]*dA*eG*eG*e[5mC]) [compound 416924],–,36 nM,25%,38%,56%,59%,4100 nM,22%,40%,63%,70%,96%,–
416941 (antisense eG*eG*e[5mC]*dA*dG*d[5mC]*dG*dG*dA*d[5mC]*dG*dG*d[5mC]*dA*dT*dT*dG*eG*eT*eG) [compound 416941],–,19 nM,33%,54%,63%,78%,3000 nM,16%,38%,79%,89%,95%,–
416827 (antisense eT*eA*eT*eG*e[5mC]*d[5mC]*d[5mC]*dT*dT*d[5mC]*dA*dT*dG*dT*d[5mC]*eT*eA*eG*eG*eT) [compound 416827],93%,23 nM,31%,42%,62%,77%,1100 nM,37%,68%,87%,92%,–,–
416896 (antisense eT*eT*eA*dT*dG*d[5mC]*d[5mC]*d[5mC]*dT*dT*d[5mC]*dA*dT*dG*dT*d[5mC]*dT*eA*eG*eG) [compound 416896],95%,27 nM,22%,39%,57%,81%,3200 nM,12%,35%,81%,89%,–,–
416922 (antisense eG*e[5mC]*eA*d[5mC]*dA*dG*dT*dT*dT*d[5mC]*dT*dG*dG*d[5mC]*dA*dG*dG*e[5mC]*e[5mC]*eT) [compound 416922],–,36 nM,14%,25%,49%,75%,1700 nM,35%,51%,77%,91%,94%,–
416895 (antisense eT*eA*eT*dG*d[5mC]*d[5mC]*d[5mC]*dT*dT*d[5mC]*dA*dT*dG*dT*d[5mC]*dT*dA*eG*eG*eT) [compound 416895],95%,15 nM,39%,57%,66%,71%,3000 nM,0%,62%,70%,91%,–,–
416842 (antisense eT*eG*eA*eG*eA*dT*dT*d[5mC]*dT*dT*dT*dG*dG*dG*d[5mC]*e[5mC]*eA*eT*eT*e[5mC]) [compound 416842],–,31 nM,18%,33%,62%,71%,5000 nM,0%,10%,66%,92%,–,94%
416923 (antisense eT*eG*e[5mC]*dA*d[5mC]*dA*dG*dT*dT*dT*d[5mC]*dT*dG*dG*d[5mC]*dA*dG*eG*e[5mC]*e[5mC]) [compound 416923],–,23 nM,36%,47%,60%,67%,4000 nM,15%,30%,60%,90%,96%,–
